ChEMBL document CHEMBL5291721, “A preclinical secondary pharmacology resource illuminates target-adverse drug reaction associations of marketed drugs” (Nat Commun, 2023)

How the values were obtained:
Adenosine receptor A1 = biological target: T1, Adenosine receptor A1 (Homo sapiens, UniProt P30542)
T1 sequence (P30542 whole entry): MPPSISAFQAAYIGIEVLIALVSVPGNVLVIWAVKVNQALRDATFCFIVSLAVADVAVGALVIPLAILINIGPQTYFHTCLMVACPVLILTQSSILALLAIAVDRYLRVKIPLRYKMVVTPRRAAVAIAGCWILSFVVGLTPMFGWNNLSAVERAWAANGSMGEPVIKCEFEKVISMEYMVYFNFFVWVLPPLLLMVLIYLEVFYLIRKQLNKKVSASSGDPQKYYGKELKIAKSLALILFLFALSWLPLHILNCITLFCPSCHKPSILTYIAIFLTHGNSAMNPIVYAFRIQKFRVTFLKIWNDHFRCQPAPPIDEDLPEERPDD

[1] = biological target: T2, Alpha-1A adrenergic receptor (Homo sapiens, UniProt P35348)
T2 sequence (P35348 whole entry): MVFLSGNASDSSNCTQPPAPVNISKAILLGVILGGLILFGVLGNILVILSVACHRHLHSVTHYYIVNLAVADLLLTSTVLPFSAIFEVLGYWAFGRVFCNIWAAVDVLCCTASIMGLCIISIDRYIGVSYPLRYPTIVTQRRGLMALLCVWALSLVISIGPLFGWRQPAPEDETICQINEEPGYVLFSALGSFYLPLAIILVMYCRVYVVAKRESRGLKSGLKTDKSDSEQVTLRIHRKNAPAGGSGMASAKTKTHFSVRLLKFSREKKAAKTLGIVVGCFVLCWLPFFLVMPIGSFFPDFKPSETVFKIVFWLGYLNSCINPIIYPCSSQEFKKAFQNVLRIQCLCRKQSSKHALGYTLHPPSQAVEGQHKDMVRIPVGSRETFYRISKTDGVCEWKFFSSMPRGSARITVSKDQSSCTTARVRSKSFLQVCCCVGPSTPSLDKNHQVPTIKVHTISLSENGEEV

[2] = biological target: T3, Gastrin/cholecystokinin type B receptor (Homo sapiens, UniProt P32239)
T3 sequence (P32239 whole entry): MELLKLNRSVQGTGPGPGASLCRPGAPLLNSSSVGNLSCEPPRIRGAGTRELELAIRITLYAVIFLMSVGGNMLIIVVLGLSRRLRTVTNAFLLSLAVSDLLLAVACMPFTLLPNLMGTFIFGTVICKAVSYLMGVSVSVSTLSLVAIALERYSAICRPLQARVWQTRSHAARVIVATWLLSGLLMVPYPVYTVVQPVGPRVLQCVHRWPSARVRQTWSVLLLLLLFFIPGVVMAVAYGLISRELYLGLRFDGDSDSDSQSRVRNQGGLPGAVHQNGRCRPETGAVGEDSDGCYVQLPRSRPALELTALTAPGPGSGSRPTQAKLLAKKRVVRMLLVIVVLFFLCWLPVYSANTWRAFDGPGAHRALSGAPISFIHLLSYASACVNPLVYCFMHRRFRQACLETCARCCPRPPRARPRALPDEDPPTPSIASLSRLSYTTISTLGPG

Cannabinoid receptor 1 = Cannabinoid receptor 1 (Homo sapiens, UniProt P21554)
Endothelin-1 receptor = biological target: T4, Endothelin-1 receptor (Homo sapiens, UniProt P25101)
T4 sequence (P25101 whole entry): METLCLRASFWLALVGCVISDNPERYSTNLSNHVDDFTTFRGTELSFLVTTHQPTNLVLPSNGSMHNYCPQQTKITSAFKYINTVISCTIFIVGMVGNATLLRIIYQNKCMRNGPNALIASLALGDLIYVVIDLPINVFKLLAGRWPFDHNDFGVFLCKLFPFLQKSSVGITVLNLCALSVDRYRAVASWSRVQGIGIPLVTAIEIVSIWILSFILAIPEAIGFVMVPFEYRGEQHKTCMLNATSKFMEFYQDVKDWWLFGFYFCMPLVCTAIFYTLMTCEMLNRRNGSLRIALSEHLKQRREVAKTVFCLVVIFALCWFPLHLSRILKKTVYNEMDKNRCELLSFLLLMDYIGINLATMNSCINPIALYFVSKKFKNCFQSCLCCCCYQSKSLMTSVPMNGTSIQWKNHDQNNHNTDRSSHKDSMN

[3] = biological target: Growth hormone secretagogue receptor type 1 (Homo sapiens, UniProt Q92847)
[4] = biological target: T5, 5-hydroxytryptamine receptor 1A (Homo sapiens, UniProt P08908); assay type: functional, cell-based
T5 sequence (P08908 whole entry): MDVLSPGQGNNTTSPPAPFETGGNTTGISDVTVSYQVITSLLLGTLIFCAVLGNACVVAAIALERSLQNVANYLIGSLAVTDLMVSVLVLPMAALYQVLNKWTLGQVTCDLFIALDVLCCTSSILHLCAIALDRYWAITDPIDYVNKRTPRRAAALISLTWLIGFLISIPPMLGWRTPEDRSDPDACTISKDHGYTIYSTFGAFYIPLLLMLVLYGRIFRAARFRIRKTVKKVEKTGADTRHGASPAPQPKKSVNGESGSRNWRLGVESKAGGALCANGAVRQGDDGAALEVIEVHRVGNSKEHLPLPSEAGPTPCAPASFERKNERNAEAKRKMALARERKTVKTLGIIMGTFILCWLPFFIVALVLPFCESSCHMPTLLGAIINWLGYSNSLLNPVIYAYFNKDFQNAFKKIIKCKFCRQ

[5] = biological target: 5-hydroxytryptamine receptor 2A (Homo sapiens, UniProt P28223); assay type: functional, cell-based
Melanocortin receptor 4 = Melanocortin receptor 4 (Homo sapiens, UniProt P32245)
Motilin receptor = Motilin receptor (Homo sapiens, UniProt O43193)
[6] = biological target: T6, Neuropeptide Y receptor type 1 (Homo sapiens, UniProt P25929)
T6 sequence (P25929 whole entry): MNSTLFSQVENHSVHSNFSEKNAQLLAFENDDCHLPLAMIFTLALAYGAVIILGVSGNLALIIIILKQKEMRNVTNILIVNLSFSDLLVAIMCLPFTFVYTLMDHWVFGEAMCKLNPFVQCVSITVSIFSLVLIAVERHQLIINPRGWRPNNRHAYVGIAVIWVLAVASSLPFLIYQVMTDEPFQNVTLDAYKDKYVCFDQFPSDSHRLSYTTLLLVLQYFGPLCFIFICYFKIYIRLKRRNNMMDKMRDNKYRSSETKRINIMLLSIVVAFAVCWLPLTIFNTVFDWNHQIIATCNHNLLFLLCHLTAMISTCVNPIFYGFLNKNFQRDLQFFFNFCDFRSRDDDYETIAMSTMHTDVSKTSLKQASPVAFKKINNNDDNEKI
Note: assay procedure not described here.

Chain of Growth hormone secretagogue receptor type 1 (Q92847 whole entry): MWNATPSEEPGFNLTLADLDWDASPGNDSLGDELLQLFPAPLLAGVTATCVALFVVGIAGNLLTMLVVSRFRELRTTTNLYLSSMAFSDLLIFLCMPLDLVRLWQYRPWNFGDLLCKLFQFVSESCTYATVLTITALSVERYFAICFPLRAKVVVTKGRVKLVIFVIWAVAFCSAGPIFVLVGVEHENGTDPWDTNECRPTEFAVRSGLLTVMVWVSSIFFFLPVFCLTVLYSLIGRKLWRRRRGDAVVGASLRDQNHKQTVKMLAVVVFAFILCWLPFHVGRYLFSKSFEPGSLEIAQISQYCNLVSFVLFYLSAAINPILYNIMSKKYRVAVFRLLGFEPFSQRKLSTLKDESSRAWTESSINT
Chain of Motilin receptor (O43193 whole entry): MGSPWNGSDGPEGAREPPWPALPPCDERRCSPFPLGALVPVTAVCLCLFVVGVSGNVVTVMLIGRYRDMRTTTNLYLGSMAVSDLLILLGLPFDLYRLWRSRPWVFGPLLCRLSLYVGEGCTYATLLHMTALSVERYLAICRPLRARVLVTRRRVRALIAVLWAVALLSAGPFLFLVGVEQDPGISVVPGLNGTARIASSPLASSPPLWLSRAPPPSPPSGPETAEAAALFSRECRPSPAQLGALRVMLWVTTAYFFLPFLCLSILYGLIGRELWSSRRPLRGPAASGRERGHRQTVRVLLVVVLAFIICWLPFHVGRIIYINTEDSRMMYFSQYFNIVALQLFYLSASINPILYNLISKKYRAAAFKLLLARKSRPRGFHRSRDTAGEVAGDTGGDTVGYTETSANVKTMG
Chain of 5-hydroxytryptamine receptor 2A (P28223 whole entry): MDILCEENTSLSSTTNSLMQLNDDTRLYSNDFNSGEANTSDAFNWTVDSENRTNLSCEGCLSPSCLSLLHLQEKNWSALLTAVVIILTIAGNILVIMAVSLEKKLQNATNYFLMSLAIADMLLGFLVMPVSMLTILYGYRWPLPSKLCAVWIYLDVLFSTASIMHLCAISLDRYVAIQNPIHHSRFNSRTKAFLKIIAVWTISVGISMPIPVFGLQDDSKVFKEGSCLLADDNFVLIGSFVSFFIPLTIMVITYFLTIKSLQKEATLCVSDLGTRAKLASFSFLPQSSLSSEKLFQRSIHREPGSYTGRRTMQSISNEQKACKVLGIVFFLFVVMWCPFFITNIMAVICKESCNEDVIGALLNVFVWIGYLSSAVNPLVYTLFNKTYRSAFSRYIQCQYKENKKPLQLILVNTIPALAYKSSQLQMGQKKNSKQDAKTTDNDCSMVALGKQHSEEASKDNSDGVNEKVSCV
Chain of Melanocortin receptor 4 (P32245 whole entry): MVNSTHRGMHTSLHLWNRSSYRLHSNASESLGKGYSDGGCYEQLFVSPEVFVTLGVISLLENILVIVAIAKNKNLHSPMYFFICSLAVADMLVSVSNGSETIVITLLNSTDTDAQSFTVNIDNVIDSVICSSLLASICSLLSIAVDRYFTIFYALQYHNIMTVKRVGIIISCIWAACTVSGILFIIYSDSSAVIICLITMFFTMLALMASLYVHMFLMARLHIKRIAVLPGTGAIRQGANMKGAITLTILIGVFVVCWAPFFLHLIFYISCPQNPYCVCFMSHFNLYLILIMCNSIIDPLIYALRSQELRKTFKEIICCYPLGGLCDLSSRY
Chain of Cannabinoid receptor 1 (P21554 whole entry): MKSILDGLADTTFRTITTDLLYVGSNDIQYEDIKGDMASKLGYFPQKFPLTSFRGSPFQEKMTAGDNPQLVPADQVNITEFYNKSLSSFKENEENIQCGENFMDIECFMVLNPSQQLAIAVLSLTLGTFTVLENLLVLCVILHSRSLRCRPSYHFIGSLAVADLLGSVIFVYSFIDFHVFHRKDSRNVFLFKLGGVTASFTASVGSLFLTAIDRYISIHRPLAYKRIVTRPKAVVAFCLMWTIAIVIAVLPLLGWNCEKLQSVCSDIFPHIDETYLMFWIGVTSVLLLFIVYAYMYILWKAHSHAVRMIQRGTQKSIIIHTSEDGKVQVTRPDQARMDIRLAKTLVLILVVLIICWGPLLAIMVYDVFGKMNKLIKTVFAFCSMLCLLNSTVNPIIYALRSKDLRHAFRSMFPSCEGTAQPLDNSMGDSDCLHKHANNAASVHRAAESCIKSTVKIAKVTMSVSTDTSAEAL

Row | SMILES | AC50 (Adenosine receptor A1) [µM] | AC50 [4] [µM] | AC50 [5] [µM] | also measured
1 | O=C(O)CCn1c2c(c3ccccc31)C[C@H](NS(=O)(=O)c1ccc(F)cc1)CC2 [RAMATROBAN] | > 30 | > 10 | > 10 | AC50 [1]: > 30 µM; AC50 [2]: > 30 µM; AC50 (Cannabinoid receptor 1): > 10 µM; AC50 (Endothelin-1 receptor): > 10 µM; AC50 [3]: > 30 µM; AC50 (Melanocortin receptor 4): > 30 µM; AC50 (Motilin receptor): > 30 µM; AC50 [6]: > 30 µM
2 | Cn1cc[nH]c1=S [METHIMAZOLE] | > 30 | – | – | –
3 | CN1C(=O)N(C)C2C1N(C)C(=O)N2C (stereo not drawn) [MEBICAR] | > 30 | > 30 | > 30 | –
4 | NS(=O)(=O)c1cc2c(cc1Cl)NC(CC1CCCC1)NS2(=O)=O (stereo not drawn) [CYCLOPENTHIAZIDE] | > 30 | > 30 | > 30 | –
5 | N/N=c1/cc2c(n[nH]1)CCN(C(=O)c1ccccc1)C2 [ENDRALAZINE] | > 30 | > 30 | > 30 | –
6 | O=C(O)c1cccc(-c2noc(-c3ccccc3F)n2)c1 | > 30 | – | – | AC50 [1]: > 10 µM
7 | CCS(=O)(=O)N1CC(CC#N)(n2cc(-c3ncnc4[nH]ccc34)cn2)C1 [BARICITINIB] | > 30 | – | – | –
8 | Nc1ccc(/N=N/c2ccccc2)c(N)n1 [PHENAZOPYRIDINE] | 13.1 | – | > 30 | –
9 | NC(=O)c1cccc2cn(-c3ccc([C@@H]4CCCNC4)cc3)nc12 [NIRAPARIB] | > 30 | – | – | –
10 | COCC1=C(C(=O)OC(C)OC(=O)OC(C)C)N2C(=O)[C@@H](NC(=O)/C(=N\OC)c3csc(N)n3)[C@H]2SC1 (stereo partly drawn) [CEFPODOXIME PROXETIL] | > 30 | > 30 | > 30 | –
11 | CO/N=C(\C(=O)N[C@@H]1C(=O)N2C(C(=O)OCOC(=O)C(C)(C)C)=C(C)CS[C@H]12)c1csc(N)n1 | > 30 | > 30 | > 30 | –
12 | CC(=O)O[C@]1(C(C)=O)CC[C@H]2[C@@H]3C[C@H](C)C4=CC(=O)CC[C@]4(C)[C@H]3CC[C@@]21C [MEDROXYPROGESTERONE ACETATE] | > 30 | – | – | AC50 [2]: > 30 µM; AC50 (Endothelin-1 receptor): > 30 µM; AC50 [3]: > 30 µM; AC50 (Motilin receptor): > 30 µM; AC50 [6]: > 30 µM
13 | CC(C)=CCC1C(=O)N(c2ccccc2)N(c2ccccc2)C1=O [FEPRAZONE] | > 30 | – | – | –
14 | O=C(Cn1ccnc1[N+](=O)[O-])NCc1ccccc1 [BENZNIDAZOLE] | > 30 | – | > 30 | AC50 [2]: > 30 µM; AC50 (Endothelin-1 receptor): > 30 µM; AC50 [3]: > 30 µM; AC50 (Motilin receptor): > 30 µM; AC50 [6]: > 30 µM
15 | COc1cc(NCc2ccc3nc(N)nc(N)c3c2C)cc(OC)c1OC [TRIMETREXATE] | > 30 | – | – | –
